Results reported in patent US6358885B1, “Substituted phenylheterocyclic herbicides” (Mississippi State University, priority 1992, dated 2002).

Key:
barley [1] = experiment: Test B preemergence/postemergence greenhouse plant response rating 0 to 10; format: in vivo, Hordeum vulgare; details: 0 to 10 scale
In short: (§1)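 Test chemicals were sprayed onto freshly planted seed and, concurrently, onto young plants between the one and four leaf stage. After a twelve- to sixteen-day greenhouse period, each species was visually compared with untreated controls.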

bedstraw = experiment: as above; format: in vivo, Galium aparine; details: POSTEMERGENCE, 0 to 10 scale
In short: as §1

chickweed [2] = experiment: as above; format: in vivo, Stellaria media; details: POSTEMERGENCE, 0 to 10 scale
In short: as §1

cocklebur = experiment: as above; format: in vivo, Xanthium pensylvanicum; details: 0 to 10 scale
In short: as §1

morningglory = experiment: as above; format: in vivo, Ipomoea hederacea; details: 0 to 10 scale
In short: as §1

sorghum = experiment: as above; format: in vivo, Sorghum bicolor; details: 0 to 10 scale
In short: as §1

soybean [3] = experiment: as above; format: in vivo, Glycine max; details: 0 to 10 scale
In short: as §1

sugar beet = experiment: as above; format: in vivo, Beta vulgaris; details: 0 to 10 scale
In short: as §1

velvetleaf = experiment: as above; format: in vivo, Abutilon theophrasti; details: 0 to 10 scale
In short: as §1

wild buckwheat = experiment: as above; format: in vivo, Polygonum convolvulus; details: 0 to 10 scale
In short: as §1

barley [4] = experiment: Test C preemergence/postemergence greenhouse plant response rating 0 to 100; format: in vivo, Hordeum vulgare; details: POSTEMERGENCE
Text: (§2) The compounds evaluated in this test were formulated in a non-phytoxic solvent and applied to the soil surface before plant seedlings emerged (preemergence application), to water that covered the soil surface (flood application), and to plants that were in the one-to-four leaf stage (postemergence application). A sandy loam soil was used for the preemergence and postemergence tests, while a silt loam soil was used in the flood test. Water depth was approximately 2.5 cm for the flood test and was maintained at this level for the duration of the test. Plant species in the preemergence and postemergence tests consisted of barley (Hordeum vulgare), bedstraw (Galium aparine), blackgrass (Alopecurus myosuroides), chickweed (Stellaria media), corn (Zea mays), cotton (Gossypium hirsutum), crabgrass (Digitaria sanguinalis), downy brome (Bromus tectorum), giant foxtail (Setaria faberii), lambsquarters (Chenopodium album), morningglory (Ipomoea hederacea), pigweed ([…]), rape (Brassica napus), ryegrass (Lolium multiflorum), sorghum (Sorghum bicolor), soybean (Glycine max), speedwell (Veronica persica), sugar beet (Beta vulgaris), velvetleaf (Abutilon theophrasti), wheat (Triticum aestivum), wild buckwheat (Polygonum convolvulus), and wild oat (Avena fatua). All plant species were planted one day before application of the compound for the preemergence portion-of this test. Plantings of these species were adjusted to produce plants of appropriate size for the post-emergence portion of the test. […] All plant species were grown using normal greenhouse practices. Visual evaluations of injury expressed on treated plants, when compared to untreated controls, were recorded approximately fourteen to twenty one days after application of the test compound. […] A dash (-) response means no test result.

blackgrass = experiment: as above; format: in vivo, Alopecurus myosuroides; details: POSTEMERGENCE
Text: as §2

chickweed [5] = experiment: as above; format: in vivo, Stellaria media; details: POSTEMERGENCE
Text: as §2

pigweed = experiment: as above; format: in vivo, Amaranthusretroflexus; details: POSTEMERGENCE
Text: as §2

rape = experiment: as above; format: in vivo, Brassica napus; details: POSTEMERGENCE
Text: as §2

ryegrass = experiment: as above; format: in vivo, Lolium multiflorum; details: POSTEMERGENCE
Text: as §2

soybean [6] = experiment: as above; format: in vivo, Glycine max; details: POSTEMERGENCE
Text: as §2

umbrella sedge = experiment: Test C flood test plant response rating 0 to 100; format: in vivo, Cyperus difformis
Text: as §2

C#CCN1C(=O)COc2cc(F)c(-c3nn4c(c3Cl)CCCC4)cc21 [Compound 34]
Plant response rating, Barley (barley [1]; POSTEMERGENCE, Rate 10 g/ha): 4 | Plant response rating, Barley (barley [1]; POSTEMERGENCE, Rate 50 g/ha): 4 | Plant response rating, Barley (barley [1]; PREEMERGENCE, Rate 10 g/ha): 0 | Plant response rating, Barley (barley [1]; PREEMERGENCE, Rate 50 g/ha): 2 | Plant response rating, Bedstraw (bedstraw; Rate 10 g/ha): 10 | Plant response rating, Bedstraw (bedstraw; Rate 50 g/ha): 10 | Plant response rating, Chickweed (chickweed [2]; Rate 10 g/ha): 10 | Plant response rating, Chickweed (chickweed [2]; Rate 50 g/ha): 10 | Plant response rating, Cocklebur (cocklebur; POSTEMERGENCE, Rate 10 g/ha): 10 | Plant response rating, Cocklebur (cocklebur; POSTEMERGENCE, Rate 50 g/ha): 1 | Plant response rating, Cocklebur (cocklebur; PREEMERGENCE, Rate 10 g/ha): 0 | Plant response rating, Cocklebur (cocklebur; PREEMERGENCE, Rate 50 g/ha): 2 | Plant response rating, Morningglory (morningglory; POSTEMERGENCE, Rate 10 g/ha): 9 | Plant response rating, Morningglory (morningglory; POSTEMERGENCE, Rate 50 g/ha): 1 | Plant response rating, Morningglory (morningglory; PREEMERGENCE, Rate 50 g/ha): 2 | Plant response rating, Sorghum (sorghum; POSTEMERGENCE, Rate 10 g/ha): 4 | Plant response rating, Sorghum (sorghum; POSTEMERGENCE, Rate 50 g/ha): 6 | Plant response rating, Sorghum (sorghum; PREEMERGENCE, Rate 50 g/ha): 2 | Plant response rating, Soybean (soybean [3]; POSTEMERGENCE, Rate 10 g/ha): 8 | Plant response rating, Soybean (soybean [3]; POSTEMERGENCE, Rate 50 g/ha): 10 | Plant response rating, Soybean (soybean [3]; PREEMERGENCE, Rate 50 g/ha): 6 | Plant response rating, Sugar beet (sugar beet; POSTEMERGENCE, Rate 10 g/ha): 10 | Plant response rating, Sugar beet (sugar beet; POSTEMERGENCE, Rate 50 g/ha): 10 | Plant response rating, Sugar beet (sugar beet; PREEMERGENCE, Rate 50 g/ha): 9 | Plant response rating, Velvetleaf (velvetleaf; POSTEMERGENCE, Rate 10 g/ha): 10 | Plant response rating, Velvetleaf (velvetleaf; POSTEMERGENCE, Rate 50 g/ha): 1 | Plant response rating, Velvetleaf (velvetleaf; PREEMERGENCE, Rate 50 g/ha): 10 | Plant response rating, Wild buckwheat (wild buckwheat; POSTEMERGENCE, Rate 10 g/ha): 10 | Plant response rating, Wild buckwheat (wild buckwheat; POSTEMERGENCE, Rate 50 g/ha): 10 | Plant response rating, Wild buckwheat (wild buckwheat; PREEMERGENCE, Rate 50 g/ha): 8 | Plant response rating Barley Igri (barley [4]; 62 g/ha, 0 to 100 scale): 40 | Plant response rating (0 to 100), Barley Igri (barley [4]; Rate 1 g/ha): 20 | Plant response rating (0 to 100), Barley Igri (barley [4]; Rate 4 g/ha): 30 | Plant response rating (0 to 100), Barley Igri (barley [4]; Rate 16 g/ha): 40 | Plant response rating, Blackgrass (blackgrass; 62 g/ha, 0 to 100 scale): 60 | Plant response rating (0 to 100), Blackgrass (blackgrass; Rate 1 g/ha): 20 | Plant response rating (0 to 100), Blackgrass (blackgrass; Rate 4 g/ha): 30 | Plant response rating (0 to 100), Blackgrass (blackgrass; Rate 16 g/ha): 50 | Plant response rating, Chickweed (chickweed [5]; 62 g/ha, 0 to 100 scale): 100 | Plant response rating (0 to 100), Chickweed (chickweed [5]; Rate 1 g/ha): 75 | Plant response rating (0 to 100), Chickweed (chickweed [5]; Rate 4 g/ha): 75 | Plant response rating (0 to 100), Chickweed (chickweed [5]; Rate 16 g/ha): 100 | Plant response rating Pigweed (pigweed; 62 g/ha, 0 to 100 scale): 100 | Plant response rating (0 to 100), Pigweed (pigweed; Rate 1 g/ha): 90 | Plant response rating (0 to 100), Pigweed (pigweed; Rate 4 g/ha): 100 | Plant response rating (0 to 100), Pigweed (pigweed; Rate 16 g/ha): 100 | Plant response rating, Rape (rape; 62 g/ha, 0 to 100 scale): 100 | Plant response rating (0 to 100), Rape (rape; Rate 1 g/ha): 85 | Plant response rating (0 to 100), Rape (rape; Rate 4 g/ha): 100 | Plant response rating (0 to 100), Rape (rape; Rate 16 g/ha): 100 | Plant response rating Ryegrass (ryegrass; 62 g/ha, 0 to 100 scale): 30 | Plant response rating (0 to 100), Ryegrass (ryegrass; Rate 1 g/ha): 10 | Plant response rating (0 to 100), Ryegrass (ryegrass; Rate 4 g/ha): 20 | Plant response rating (0 to 100), Ryegrass (ryegrass; Rate 16 g/ha): 30 | Plant response rating, Soybean (soybean [6]; 62 g/ha, 0 to 100 scale): 100 | Plant response rating (0 to 100), Soybean (soybean [6]; Rate 1 g/ha): 50 | Plant response rating (0 to 100), Soybean (soybean [6]; Rate 4 g/ha): 70 | Plant response rating (0 to 100), Soybean (soybean [6]; Rate 16 g/ha): 100 | Plant response rating (0 to 100), Umbrella sedge (umbrella sedge; POSTEMERGENCE section, flood test, Rate 1 g/ha): 0 | Plant response rating (0 to 100), Umbrella sedge (umbrella sedge; POSTEMERGENCE section, flood test, Rate 4 g/ha): 0 | Plant response rating (0 to 100), Umbrella sedge (umbrella sedge; Rate 16 g/ha, under POSTEMERGENCE head (flood test species)): 60 | Plant response rating Umbrella sedge (umbrella sedge; flood test species listed under POSTEMERGENCE, 62 g/ha, 0 to 100 scale): 80
